Results taken from ChEMBL document CHEMBL1128796, “2-Substituted 2-aminoethanol: Minimum essential structure for immunosuppressive activity of ISP-I (Myriocin)” (Bioorg Med Chem Lett, 1995).
Structures can show the parent of a compound that is named as a salt.

organism: Mus musculus; test: Effect on mouse allogenic mixed lymphocyte reaction (MLR); type: functional

IC50 | SMILES
140 nM | CCCCCCCCCCCCCCCCCCC(N)CO (configuration not stated)
12 nM | CCCCCCCCCCCCCCCCCCC(N)(CO)CO
> 10000 nM | CCCCCCCCCCCCCCCCCCC(CO)CO
> 10000 nM | CCCCCCCCCCCCCCCCCCN [OCTADECYLAMINE]
11 nM | CCCCCCCCc1ccc(CCC(N)CO)cc1 (configuration not stated)
6.1 nM | CCCCCCCCc1ccc(CCC(N)(CO)CO)cc1 [FINGOLIMOD HYDROCHLORIDE]

SMILES | IC50
CCCCCCC(=O)CCCCCC/C=C/C[C@@H](O)[C@H](O)[C@@](N)(CO)C(=O)O [MYRIOCIN] | 8 nM
